Tests used:
[1] = system: ischemic neuronal degeneration; assay: Protection of cell damage by ischemia (in vivo); set-up: species or system Mongolian gerbils (Meriones unguiculatus); settings: 60 mg/kg P.O. 30 minutes after ischemic injury (post-treated), 5 min carotid occlusion, 4 days reperfusion, hippocampus
Description: Male Mongolian gerbils (Meriones unguiculatus) weighing 80-88 g were used in the present study. Each animal was medicated P.O. with vehicle, Ebselen or various test compounds (60 mg/kg in 10% DMSO), after 30 minutes ischemic injury, respectively. 20 animals were allotted into every group. The animals were placed under general anesthesia with a mixture of 2.5% isoflurane in 33% oxygen and 67% nitrous oxide. A midline ventral incision was made in the neck. Both common carotid arteries were isolated, freed of nerve fibers, and occluded using nontraumatic aneurysm clips. Complete interruption of blood flow was confirmed by observing the central artery in eyeballs using ophthalmoscope. After five minutes of occlusion, the aneurysm clips were removed from both common carotid arteries. Restoration of blood flow (reperfusion) was observed directly under the microscope. Sham-operated controls were subjected to the same surgical procedures except that common carotid arteries were not occluded. Body temperature was monitored and maintained at 37° C.±0.5° C. during surgery and during the immediate postoperative period until the animals recovered fully from anesthesia. […]
Images of staining in the hippocampus of each animal were captured with an Applescanner. […] All data obtained from the quantitative data were analyzed using one-way ANOVA to determine statistical significance. […]

[2] = system: rats; settings: oral administration; cited from earlier work
[3] = system: mice; settings: oral administration; cited from earlier work
[4] = even in the presence of an excess of glutathione (GSH); cited from earlier work
[5] = system: soybean phosphatidylcholine liposome; assay: Inhibition of lipid peroxidation of a multilayer liposome (TBA method); format: biochemical; settings: lipid peroxidation of liposome started with FeCl2, 37° C. 15 minutes, absorbance at 532 nm; read-out: Inhibitor Concentration (IC50)
Description: The compounds of the present invention were tested for antioxidant effect in terms of the repression of the radical chain reaction of a multilayer liposome.
The liposome was prepared as followings: 30 mg of commercially available soybean phosphatidylcholine (PC, Sigma Chemical Co., U.S.A.) was dissolved in 1 mL of ethanol, and 200 μL of the ethanol/PC solution was added to 10 mL of 10 mM Tris buffer including 50 mM NaCl (pH 7.0) with stirring.
The ability of a compound to inhibit oxidation of the liposome was evaluated as followings: To 400 μL of the liposomes were added the test compound (in buffer or ethanol) and histidine-FeCl3 (167:33 μM final). Oxidation was initiated by the addition of FeCl2 (33 μM final prepared in nitrogen purged water). The mixtures was shaken at 37° C. for 15 minutes. Thereafter, tubes were treated with 1 mL of 0.67% thiobabituric acid (TBA):10% trichloroacetic acid (2:1, v/v) in 0.25 N HCl solution, containing 1.5% (v/v) t-butylhydroxytoluene (BHT) to terminate oxidation. The aliquots were heated to 100° C. for 20 minutes. After ice cooling, 1 mL of chloroform was added to 1 mL supernatant from tubes and tubes were centrifuged. The absorbances of the resulting supernatant were measured at 532 nm (see: Table 1 below).

[6] = Acute toxicity LD50 in rats; settings: rat, in vivo

IC50 [5] | Molecule | protective effect against ischemic neuronal degeneration [1] | other results
– | O=c1c2ccccc2[se]n1-c1ccccc1 [Ebselen] | 59% | LD50 [2]: ≥ 6,810 mg/kg; LD50 [3]: ≥ 6,810 mg/kg; solubility in water [4]: very little soluble in water
4.3 µM | CC(C)(C)N(O)c1ccc(C(=O)Nc2ccccn2)cc1 [Example 2, 4-[N-(tert-butyl)-N-hydroxyamino]-N-pyridin-2-yl-benzamide] | – | –
61.9 µM | CC(C)(C)N(O)c1ccc(C(=O)Nc2ccc(O)c3ncccc23)cc1 [Example 4, 4-[N-(tert-butyl)-N-hydroxyamino]-N-(8-hydroxyquinolin-5-yl)-benzamide] | – | –
10.2 µM | Cc1c(C)c2c(c(C)c1O)CCC(C)(C(=O)O)O2 (stereo not drawn) [Trolox, reference compound] | – | –
11.1 µM | 4-[N-(tert-butyl)-N-hydroxyamino]-N-pyridin-2-yl-methyl-benzamide [Example 3] | – | –

Molecule | IC50 [5] | protective effect against ischemic neuronal degeneration [1] | other results
CC(C)(C)N(O)c1ccc(C(=O)Nc2nccs2)cc1 [Example 1, 4-[N-(tert-butyl)-N-hydroxyamino]-N-thiazol-2-yl-benzamide] | 1.44 µM | 81% | LD50 ([6]; ip, intraperitoneal administration in rats): ≥ 750 mg/kg; LD50 ([6]; oral administration in rats): ≥ 7000 mg/kg
